Counter-ions that a name gives are not always drawn.
Columns and labels:
BTK = biological target: T1, BTK (Homo sapiens, UniProt Q06187); test: Cell Degradation: BTK degradation in TMD-8 cells, HTRF assay; assay type: cell-based; details: 6 h treatment, IC50 (DC50) of BTK degradation
T1 construct: High control=Cell group with added DMSO and without compound, indicating microplate readings without BTK degradation; endogenous in cells; host or cells: TMD-8 cells
Summary of the method: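 TMD-8 cells treated 6 h with 8-dose 6-fold dilutions in 0.2% DMSO, then lysed and BTK quantified by HTRF (665/620 nm). Degradation % normalised to high/low controls; DC50 from four-parameter fit, Dmax as maximal degradation.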

HEK-293 cells = test: HEK-293 Cytotoxicity Assay (CellTiter-Glo); assay type: cell-based; details: Homo sapiens, HEK293, 72 h incubation, CellTiter-Glo luminescence
Summary of the method: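 HEK-293 cells treated 72 h with 8 concentrations (4-fold dilutions, 0.2% DMSO final). Viability read by CellTiter-Glo luminescence; IC50 from four-parameter logistic fit of % inhibition.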

T1 sequence (Q06187 whole entry): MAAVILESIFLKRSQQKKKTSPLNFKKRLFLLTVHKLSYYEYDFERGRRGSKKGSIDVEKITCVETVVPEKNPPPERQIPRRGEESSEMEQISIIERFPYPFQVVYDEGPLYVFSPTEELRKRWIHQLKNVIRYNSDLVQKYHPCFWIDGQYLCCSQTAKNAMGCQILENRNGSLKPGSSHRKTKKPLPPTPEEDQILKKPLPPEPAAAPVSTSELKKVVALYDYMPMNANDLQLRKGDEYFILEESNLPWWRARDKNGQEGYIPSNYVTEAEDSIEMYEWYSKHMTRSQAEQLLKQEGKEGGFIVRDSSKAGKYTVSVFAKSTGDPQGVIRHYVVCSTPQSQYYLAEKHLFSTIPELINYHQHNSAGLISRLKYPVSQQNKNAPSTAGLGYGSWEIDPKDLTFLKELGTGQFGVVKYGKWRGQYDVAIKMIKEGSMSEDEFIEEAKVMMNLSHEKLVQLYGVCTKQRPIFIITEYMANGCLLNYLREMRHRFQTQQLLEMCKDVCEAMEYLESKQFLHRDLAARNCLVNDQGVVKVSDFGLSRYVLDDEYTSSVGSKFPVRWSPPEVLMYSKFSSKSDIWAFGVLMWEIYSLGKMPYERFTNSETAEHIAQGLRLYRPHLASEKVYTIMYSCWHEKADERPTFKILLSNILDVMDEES

| Structure (SMILES) | DC50 (BTK) [nM] | IC50 (HEK-293 cells) [nM] |
| --- | --- | --- |
| Cc1cc(-c2ncnc3[nH]c(-c4ccc(C5CCN(CC6CCN(c7ccc(N8CCC(=O)NC8=O)cc7F)CC6)CC5)cc4)cc23)ccc1CNC(=O)c1nc(C(C)(C)C)no1 [Example 39, 3-(tert-butyl)-N-(4-(6-(4-(1-((1-(4-(2,4-dioxotetrahydropyrimidin-1(2H)-yl)-2-fluorophenyl)piperidin-4-yl)methyl)piperidin-4-yl)phenyl)-7H-pyrrolo[2,3-d]pyrimidin-4-yl)-2-methylbenzyl)-1,2,4-oxadiazole-5-carboxamide Formate] | 1.1 | > 10000 |
| Cc1cc(-c2ncnc3[nH]c(-c4ccc(C5CCN(CC6CCN(c7ccc(N8CCC(=O)NC8=O)cc7)CC6)CC5)cc4)cc23)ccc1CNC(=O)c1cn(C(C)(C)C)nn1 [Example 40, 1-(tert-butyl)-N-(4-(6-(4-(1-((1-(4-(2,4-dioxotetrahydropyrimidin-1(2H)-yl)phenyl)piperidin-4-yl)methyl)piperidin-4-yl)phenyl)-7H-pyrrolo[2,3-d]pyrimidin-4-yl)-2-methylbenzyl)-1H-1,2,3-triazole-4-carboxamide] | 0.63 | > 10000 |
| Cc1cc(-c2ncnc3[nH]c(-c4ccc(N5CCN(CC6CCN(c7ccc(N8CCC(=O)NC8=O)cc7)CC6)CC5)cc4)cc23)ccc1[C@@H](C)NC(=O)c1noc(C(C)(C)C)n1 [Example 41, (R)-5-(tert-butyl)-N-(1-(4-(6-(4-(4-((1-(4-(2,4-dioxotetrahydropyrimidin-1(2H)-yl)phenyl)piperidin-4-yl)methyl)piperazin-1-yl)phenyl)-7H-pyrrolo[2,3-d]pyrimidin-4-yl)-2-methylphenyl)ethyl)-1,2,4-oxadiazole-3-carboxamide] | 1.3 | > 10000 |
| CC(C)(C)c1noc(C(=O)NCc2ccc(-c3ncnc4[nH]c(-c5ccc(N6CCN(CC7CCN(c8ccc(N9CCC(=O)NC9=O)cc8)CC7)CC6)nc5)cc34)cc2F)n1 [Example 42, 3-(tert-butyl)-N-(4-(6-(6-(4-((1-(4-(2,4-dioxotetrahydropyrimidin-1(2H)-yl)phenyl)piperidin-4-yl)methyl)piperazin-1-yl)pyridin-3-yl)-7H-pyrrolo[2,3-d]pyrimidin-4-yl)-2-fluorobenzyl)-1,2,4-oxadiazole-5-carboxamide] | 0.51 | > 10000 |
| Cc1cc(-c2ncnc3[nH]c(-c4ccc(N5CCN(CC6CCN(c7cc(F)ccc7N7CCC(=O)NC7=O)CC6)CC5)cc4)cc23)ccc1[C@@H](C)NC(=O)c1nc(C(C)(C)C)no1 [Example 43, (R)-3-(tert-butyl)-N-(1-(4-(6-(4-(4-((1-(2-(2,4-dioxotetrahydropyrimidin-1(2H)-yl)-5-fluorophenyl)piperidin-4-yl)methyl)piperazin-1-yl)phenyl)-7H-pyrrolo[2,3-d]pyrimidin-4-yl)-2-methylphenyl)ethyl)-1,2,4-oxadiazole-5-carboxamide] | > 2000 | > 10000 |
| Cc1cc(-c2ncnc3[nH]c(-c4ccc(N5CCN(CC6CCN(c7ccc(N8CCC(=O)NC8=O)c(C)c7)CC6)CC5)cc4)cc23)ccc1[C@@H](C)NC(=O)c1nc(C(C)(C)C)no1 [Example 44, (R)-3-(tert-butyl)-N-(1-(4-(6-(4-(4-((1-(4-(2,4-dioxotetrahydropyrimidin-1(2H)-yl)-3-methylphenyl)piperidin-4-yl)methyl)piperazin-1-yl)phenyl)-7H-pyrrolo[2,3-d]pyrimidin-4-yl)-2-methylphenyl)ethyl)-12,4-oxadiazole-5-carboxamide] | 1.2 | > 10000 |
| COc1cc(N2CCC(CN3CCN(c4ccc(-c5cc6c(-c7ccc([C@@H](C)NC(=O)c8nc(C(C)(C)C)no8)c(C)c7)ncnc6[nH]5)cc4)CC3)CC2)ccc1N1CCC(=O)NC1=O [Example 45, (R)-3-(tert-butyl)-N-(1-(4-(6-(4-(4-((1-(4-(2,4-dioxotetrahydropyrimidin-1(2H)-yl)-3-methoxyphenyl)piperidin-4-yl)methyl)piperazin-1-yl)phenyl)-7H-pyrrolo[2,3-d]pyrimidin-4-yl)-2-methylphenyl)ethyl)-1,2,4-oxadiazole-5-carboxamide] | 1.8 | > 10000 |
| Cc1cc(-c2ncnc3[nH]c(-c4ccc(N5CCN(CC6CCN(c7ccc(N8CCC(=O)NC8=O)cc7)CC6)CC5)cc4)cc23)ccc1CNC(=O)c1csc(C(C)(C)C)n1 [Example 46, 2-(tert-butyl)-N-(4-(6-(4-(4-((1-(4-(2,4-dioxotetrahydropyrimidin-1(2H)-yl)phenyl)piperidin-4-yl)methyl)piperazin-1-yl)phenyl)-7H-pyrrolo[2,3-d]pyrimidin-4-yl)-2-methylbenzyl)thiazole-4-carboxamide] | 5.3 | > 10000 |
| Cc1cc(-c2ncnc3[nH]c(-c4ccc(N5CCN(CC6CCN(c7ccc(N8CCC(=O)NC8=O)cc7)CC6)CC5)cc4)cc23)ccc1CNC(=O)c1cnc(C(C)(C)C)s1 [Example 47, 2-(tert-butyl)-N-(4-(6-(4-(4-((1-(4-(2,4-dioxotetrahydropyrimidin-1(2H)-yl)phenyl)piperidin-4-yl)methyl)piperazin-1-yl)phenyl)-7H-pyrrolo[2,3-d]pyrimidin-4-yl)-2-methylbenzyl)thiazole-5-carboxamide] | 1.8 | > 10000 |
| Cc1cc(-c2ncnc3[nH]c(-c4ccc(N5CCN(CC6CCN(c7ccc(C8CCC(=O)NC8=O)cc7)CC6)CC5)nc4)cc23)ccc1[C@@H](C)NC(=O)c1nc(C(C)(C)C)no1 (stereo partly drawn) [Example 48, 3-(tert-butyl)-N-((1R)-1-(4-(6-(6-(4-((1-(4-(2,6-dioxopiperidin-3-yl)phenyl)piperidin-4-yl)methyl)piperazin-1-yl)pyridin-3-yl)-7H-pyrrolo[2,3-d]pyrimidin-4-yl)-2-methylphenyl)ethyl)-1,2,4-oxadiazole-5-carboxamide] | 1.7 | > 10000 |
| Cc1cc(-c2ncnc3[nH]c(-c4ccc(OC5CCN(CC6CCN(c7ccc(N8CCC(=O)NC8=O)cc7)CC6)CC5)cc4)cc23)ccc1CNC(=O)c1nc(C(C)(C)C)no1 [Example 49, 3-(tert-butyl)-N-(4-(6-(4-((1-((1-(4-(2,4-dioxotetrahydropyrimidin-1(2H)-yl)phenyl)piperidin-4-yl)methyl)piperidin-4-yl)oxy)phenyl)-7H-pyrrolo[2,3-d]pyrimidin-4-yl)-2-methylbenzyl)-1,2,4-oxadiazole-5-carboxamide] | 1.3 | > 10000 |

The next lines start with results.

| DC50 (BTK) [nM] | Structure (SMILES) | IC50 (HEK-293 cells) [nM] |
| --- | --- | --- |
| 1.1 | Cc1cc(-c2ncnc3[nH]c(-c4ccc(N5CCN(CC6CCN(c7ccc(N8CCC(=O)NC8=O)cc7)CC6)CC5)cc4)cc23)ccc1CNC(=O)c1noc(C(C)(C)C(F)(F)F)n1 [Example 50, N-(4-(6-(4-(4-((1-(4-(2,4-dioxotetrahydropyrimidin-1(2H)-yl)phenyl)piperidin-4-yl)methyl)piperazin-1-yl)phenyl)-7H-pyrrolo[2,3-d]pyrimidin-4-yl)-2-methylbenzyl)-5-(1,1,1-trifluoro-2-methylpropan-2-yl)-1,2,4-oxadiazole-3-carboxamide] | > 10000 |
| 0.38 | Cc1cc(-c2ncnc3[nH]c(-c4ccc(N5CCN(CC6CCN(c7ccc(N8CCC(=O)NC8=O)cc7)CC6)CC5)cc4)cc23)ccc1CNC(=O)c1noc(C2(C(F)(F)F)CC2)n1 [Example 51, N-(4-(6-(4-(4-((1-(4-(2,4-dioxotetrahydropyrimidin-1(2H)-yl)phenyl)piperidin-4-yl)methyl)piperazin-1-yl)phenyl)-7H-pyrrolo[2,3-d]pyrimidin-4-yl)-2-methylbenzyl)-5-(1-(trifluoromethyl)cyclopropyl)-1,2,4-oxadiazole-3-carboxamide] | > 10000 |
| 1.7 | Cc1cc(N2CCC(CN3CCN(c4ccc(-c5cc6c(-c7ccc([C@@H](C)NC(=O)c8nc(C(C)(C)C)no8)c(F)c7)ncnc6[nH]5)cn4)CC3)CC2)ccc1N1CCC(=O)NC1=O [Example 52, (R)-3-(tert-butyl)-N-(1-(4-(6-(6-(4-((1-(4-(2,4-dioxotetrahydropyrimidin-1(2H)-yl)-3-methylphenyl)piperidin-4-yl)methyl)piperazin-1-yl)pyridin-3-yl)-7H-pyrrolo[2,3-d]pyrimidin-4-yl)-2-fluorophenyl)ethyl)-1,2,4-oxadiazole-5-carboxamide] | > 10000 |
| > 2000 | Cc1cc(-c2ncnc3[nH]c(-c4ccc(N5CCN(CCC6CCN(c7ccc([C@H]8CCC(=O)NC8=O)cc7)CC6)CC5)nc4)cc23)ccc1[C@@H](C)NC(=O)c1nc(C(C)(C)C)no1 [Example 53, 3-(tert-butyl)-N-((R)-1-(4-(6-(6-(4-(2-(1-(4-((R)-2,6-dioxopiperidin-3-yl)phenyl)piperidin-4-yl)ethyl)piperazin-1-yl)pyridin-3-yl)-7H-pyrrolo[2,3-d]pyrimidin-4-yl)-2-methylphenyl)ethyl)-1,2,4-oxadiazole-5-carboxamide] | > 10000 |
| 3.7 | Cc1cc(-c2ncnc3[nH]c(-c4ccc(N5CCN(CCC6CCN(c7ccc([C@@H]8CCC(=O)NC8=O)cc7)CC6)CC5)nc4)cc23)ccc1[C@@H](C)NC(=O)c1nc(C(C)(C)C)no1 [Example 54, 3-(tert-butyl)-N-((R)-1-(4-(6-(6-(4-(2-(1-(4-((S)-2,6-dioxopiperidin-3-yl)phenyl)piperidin-4-yl)ethyl)piperazin-1-yl)pyridin-3-yl)-7H-pyrrolo[2,3-d]pyrimidin-4-yl)-2-methylphenyl)ethyl)-1,2,4-oxadiazole-5-carboxamide] | > 10000 |
| 3.2 | Cc1cc(-c2ncnc3[nH]c(-c4ccc(N5CCN(CC6CCN(c7ccc(C8CCC(=O)NC8=O)cc7)CC6)CC5)cc4)cc23)ccc1[C@@H](C)NC(=O)c1nc(C(C)(C)C)no1 (stereo partly drawn) [Example 55, (R)-3-(tert-butyl)-N-(1-(4-(6-(4-(4-((1-(4-(2,6-dioxopiperidin-3-yl)phenyl)piperidin-4-yl)methyl)piperazin-1-yl)phenyl)-7H-pyrrolo[2,3-d]pyrimidin-4-yl)-2-methylphenyl)ethyl)-1,2,4-oxadiazole-5-carboxamide] | > 10000 |
